How the values were obtained:
solubility in water = assay type: physicochemical
NPR1 [1] = molecular target: T1, NPR1 (Arabidopsis thaliana, UniProt P93002); experiment: homologous and heterologous competitive binding curves for the [14C]SA-NPR1 interaction (equilibrium dialysis); settings: 0.08 μM NPR1, 0.07 μM [14C]SA
T1 construct: made in house; host or cells: E. coli
Description: Given the dissociation reaction:
For the saturation binding curves (FIGS. 1C and 7D/E), 0.8 μM of NPR1 protein was incubated with a final concentration of 0.007-14 μM [^14C]SA. The data was analyzed by non-linear regression using GraphPad PRISM 4 and fitted to a one-site-binding rectangular hyperbola. For homologous and heterologous competitive binding curves (FIGS. 1E/F and 7F/G), 0.08 μM of NPR1 protein was incubated with a final concentration of 0.07 μM [^14C]SA.

NPR1 [2] = molecular target: T1, NPR1; experiment: Sephacryl S300 gel filtration of Strep-tagged NPR1; assay type: biochemical; settings: 1 mM SA, catechol, 4-hydroxy benzoic acid or methyl-salicylate, 30 min; DTT concentration not given
Description: Strep-tagged purified proteins in a final volume of 2 ml were subjected to gel filtration analysis on the Sephacryl S100 HR or Sephacryl S300 HR packed in 50 cm long HR 16 columns (GE Health) and equilibrated with S300 chromatography buffer (50 mM HEPES, pH 7.4, 250 mM NaCl. Elutions, in 0.5 ml fractions, were performed in the same buffer at a flow rate of 0.8 ml/min. Where indicated, proteins were incubated with 1 mM SA, 1 mM catechol, 1 mM 4-hydroxy benzoic acid, or 1 mM methyl-salicylate at room temperature for 30 min prior to chromatography as described above with the exception that the chromatography buffer was supplemented with 1 mM SA, 1 mM catechol, 1 mM 4-hydroxy benzoic acid, or 1 mM methyl-salicylate, respectively. In the case of the EDTA treatment, NPR1 was stripped of its metal by a 50 mM EDTA treatment of 30 min, followed by an incubation of 30 min with 1 mM SA prior to gel filtration. In this case, the chromatography buffer was supplemented with 1 mM SA.

[3] = molecular target: T2, NPR1-dependent oligomer on the PR-1 promoter (Arabidopsis thaliana, UniProt P93002); experiment: Cross-linked-chromatin chromatography (3C Method); assay type: in vivo; settings: wild-type plants, region −734 to −833
T2 construct: in wild-type plants (WT), such an oligomer forms on the PR-1 promoter; endogenous in cells; host or cells: wild-type Arabidopsis plants
T2 sequence (P93002 1-593): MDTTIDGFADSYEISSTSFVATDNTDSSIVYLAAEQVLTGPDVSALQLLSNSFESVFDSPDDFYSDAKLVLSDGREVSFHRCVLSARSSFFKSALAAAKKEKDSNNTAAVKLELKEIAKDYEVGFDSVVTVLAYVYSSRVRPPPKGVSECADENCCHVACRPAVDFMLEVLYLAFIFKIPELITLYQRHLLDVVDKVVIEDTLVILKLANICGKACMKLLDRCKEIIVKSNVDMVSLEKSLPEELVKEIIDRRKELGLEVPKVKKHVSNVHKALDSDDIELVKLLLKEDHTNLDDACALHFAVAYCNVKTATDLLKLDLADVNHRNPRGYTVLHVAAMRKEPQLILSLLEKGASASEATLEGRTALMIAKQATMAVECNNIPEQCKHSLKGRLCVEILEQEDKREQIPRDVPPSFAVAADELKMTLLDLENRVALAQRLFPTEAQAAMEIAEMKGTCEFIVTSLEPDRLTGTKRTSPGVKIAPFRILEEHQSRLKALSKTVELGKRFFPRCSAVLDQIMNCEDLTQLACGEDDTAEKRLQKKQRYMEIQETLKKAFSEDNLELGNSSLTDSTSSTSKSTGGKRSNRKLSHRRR
Description: Plant treatment, cross-linking, sonication, and cross-linking reversal were performed as for chromatin-immunoprecipitation (Rochon et al., 2006). Chromatography was as described under “Chromatography”. qPCR was performed with PR1 and Ubiquitin5 primers. PR-1 values were normalized against Ubiquitin5 (see Table 1 for primer sequence).
Although there are no decisive methods to test the stoichiometry of a protein in vivo, it was determined whether or not NPR1-dependent oligomers form on DNA in vivo by combining chromatin cross-linking, gel filtration, and qPCR (the 3C Method). The rationale was that, if an NPR1-dependent oligomer forms on the PR1 promoter in vivo, the presence of PR1 should be detectable by qPCR in the void fraction of an S300 after the chromatin had been cross-linked and sheared by sonication.

PR-1 expression = PR-1 expression by quantitative RT-PCR after chemical treatment; assay type: in vivo, Arabidopsis; settings: 12 hrs
Description: Total RNA was extracted from leaves using the Rneasy plant mini kit (Qiagen) according to the supplier's instructions. After treatment with Dnase I (Invitrogen), first strand cDNA synthesis was generated using SuperScript II reverse transcriptase (Invitrogen), and the (dT)17VN oligo in the presence of 0.4 U Rnasin (Fisher Scientific). The newly-synthesized cDNA was diluted 1/200 to reflect a concentration of 10 ng μL^−1 input total RNA. RT-PCR was performed on a CFX96 spectrofluorometric thermal cycler (BioRad). Firefly luciferase values were normalized against Renilla Luciferase and PR-1 values against Ubiquitin5 (see Table 1 for primer sequence). […] All treatments were for 12 hrs. Values consist of n=3 biological replicates and represent averages±1 SD.

[4] = 300 μM, fold-induction over water

| SMILES | solubility in water (solubility in water) | affinity for NPR1 compared with SA (competitive binding) (NPR1 [1]) | conformation of NPR1 (S300 elution profile) (NPR1 [2]) | NPR1-dependent oligomer on the PR-1 promoter (void fraction, qPCR) [3] | other results |
| --- | --- | --- | --- | --- | --- |
| O=C(O)c1cc(Cl)cc(Cl)c1O [3,5-dichloro SA] | low solubility in water | – | – | – | – |
| O=C(O)c1cccc(O)c1 [3-hydroxy benzoic acid] | – | do not interact with NPR1 with the same affinity as SA | – | – | – |
| O=C(O)c1ccc(Cl)cc1O [4-chloro SA] | low solubility in water | – | – | – | – |
| O=C(O)c1ccc(O)cc1 [4-hydroxy benzoic acid] | – | do not interact with NPR1 with the same affinity as SA | do not alter the conformation of NPR1 | did not reduce the amount of NPR1-dependent oligomer | – |
| CSC(=O)c1cccc2nnsc12 [BTH, benzo(1,2,3)thiadiazole-7-carbothioic acid S-methyl ester] | low solubility in water | – | – | reduced the amount of NPR1-dependent oligomer on the PR-1 promoter | PR-1 expression (PR-1 expression; BTH at 100 μM): capacity to induce PR-1 expression |
| O[C@@H](CS)[C@@H](O)CS [DTT] | – | – | did not induce a redistribution of the protein to the included volume | – | – |
| O=C(O)c1cc(Cl)nc(Cl)c1 [INA, 2,6-dichloroisonicotinic acid] | low solubility in water | – | – | did not affect the NPR1-dependent oligomer on the PR-1 promoter | PR-1 expression (PR-1 expression; 300 μM): poor inducer of PR-1 expression; PR-1 induction, times less effective than an identical concentration of 4-chloro SA (PR-1 expression; [4]): 10 times; PR-1 induction, times less effective than an identical concentration of SA (PR-1 expression; [4]): 42 times |
| Oc1ccccc1O [catechol] | – | do not interact with NPR1 with the same affinity as SA | do not alter the conformation of NPR1 | – | – |

— patent publication US10674724B2, “Method of activating immune response in plants” (priority 2012, dated 2020)
